Each block holds one molecule with its values, some of them ahead of it.
What was measured:
TNBC PDX tumors = test: TNBC PDX models, single agent or combination with olaparib; assay type: in vivo, athymic nude Fox1^nu mice; details: CTG-0437, CTG-1017, and CTG-2055; olaparib p.o. 50 mg/kg qd×28
Text: The activity of Conjugate 46 as a single agent or in combination with the PARP inhibitor olaparib was additionally assessed in TNBC PDX models. Briefly, PDX tumors, spanning varying levels of ROR1 expression and sensitivity to olaparib, were passaged in athymic nude Fox1^nu mice before being processed into tumor fragments for subcutaneous implantation into the hind flank of mice for study initiation. When tumors reached a volume of around 150-300 mm^3, the mice were randomized and enrolled into the study. Tumor-bearing mice were administered up to three weekly doses (qw×3) of Conjugate 46 i.v. at 5 mg/kg and up to twenty-eight daily doses (qd×28) of olaparib p.o. at 50 mg/kg.
Combination treatment with Conjugate 46 and olaparib (50 mg/kg, qd×28) is conducted using a 2 mg/kg, qw×3 dosing regimen for Conjugate 46. The combination therapy is assessed in six TNBC PDX models as described in Example 26.

[1] = system: ROR1 positive Ntera-2 cell; test: In vitro cell killing of ROR1 ADCs, ROR1 positive cells (Cell Titer-Glo, 120 hours); assay type: cell-based, human; details: Table 13
Text: (§1) Ntera-2, MDA-MB-231, MCF7, HCT116 and Mino cells were obtained from ATCC. HCT116-hRor1-D02 clone was generated by transfecting HCT116 cells with a plasmid containing human Ror1 cDNA sequence and selected for highest stable expression of hRor1 on the cell surface. MDA-MB-231, MCF7, HCT116 and HCT116-Ror1 cell were maintained in Ham's F-12 high glucose DMEM (50-50) (Cellgro-Mediatech; Manassas, VA) supplemented with 10% heat-inactivated fetal bovine serum (Hyclone; Thermo Scientific; Waltham, MA), 1% Penicillin/Streptomycin (Cellgro-Mediatech; Manassas, VA) and 2 mmol/L-glutamax (Life Technology; Carlsbad, CA). Mino cells were maintained in RPMI-1640 medium (Cellgro-Mediatech; Manassas, VA) supplemented with 20% heat-inactivated fetal bovine serum (Hyclone; Thermo Scientific; Waltham, MA), 1% Penicillin/Streptomycin (Cellgro-Mediatech; Manassas, VA) and 2 mmol/L-glutamax (Life Technology; Carlsbad, CA).
(§2) Anti-ROR1 antibody was conjugated to different linker-warheads described herein at different DARs and the cell killing activity of the ADCs were evaluated on ROR1 positive Ntera-2 cell and ROR1 negative MCF7 cells.
(§3) Ntera-2 or MCF7 cell at 625 cells/25 μL were seeded in a 384-well flat bottom white polystyrene plate one day before the assay start. ADCs were formulated at 2× starting concentration. Filter sterilized samples were serial diluted (1:3) under sterile conditions and added onto cells in triplicates. Plates were cultured at 37° C. in a CO2 incubator for 120 hours. […] Relative luminescence was measured on an ENVISION® plate reader (Perkin-Elmer; Waltham, MA). Relative luminescence readings were converted to % viability using untreated cells as controls. […]
(§4) To evaluate if the cell killing activity of anti-ROR1 ADCs is dependent on antibody binding to ROR1 expressed on cell surface, the same linker-warheads (LP3, LP4) were conjugated to an anti-GFP antibody and the cell killing of the anti-ROR1 and anti-GFP ADCs were evaluated in cell killing assays on ROR1 positive Ntera-2 cell and ROR1 negative MCF7 cells.

ROR1 negative MCF7 cells = test: In vitro cell killing of ROR1 ADCs, ROR1 negative cells (Cell Titer-Glo, 120 hours); assay type: cell-based, human; details: Table 13
Text: as §1, §2, §3, §4

[2] = system: ROR1-positive Ntera-2 cells; test: Induction of immunogenic cell death markers (calreticulin by FACS, HMGB1 by ELISA); assay type: cell-based, human; details: 3 days treatment
Protocol: ROR1-positive Ntera-2 cells were treated with Conjugate 46 or exatecan for 3 days. Calreticulin on the cell surface was measured by FACS and HMGB1 in the cell culture medium were measured by ELISA. […] FIG. 20A and FIG. 20B illustrate calreticulin expression and HMGB1 release of Ntera-2 cells in the presence of Conjugate 46 or exatecan compared to the un-conjugated antibody and an isotype control of Conjugate 46.

[3] = system: ROR1-positive Ntera-2 cells co-cultured with PMBCS; test: Ntera-2 / PBMC co-culture: target cell killing and monocyte activation (FACS); assay type: cell-based, human
Protocol: ROR1-positive Ntera-2 cells were co-cultured with PMBCS at E:T=[…] and treated with Conjugate 46 or exatecan for 3 days. Live target cell count and monocyte activation were measured by FACS. […] FIG. 21A and FIG. 21B are graphs showing the percent of live target cells and monocyte activation in Ntera-2 cells following treatment with Conjugate 46 or exatecan compared to the un-conjugated antibody and an isotype control of Conjugate 46. […] Unconjugated anti-ROR1 antibody or a non-targeted ADC had no activity. […] Viability and calreticulin surface expression were measured and presented as a percentage compared to untreated cells.

[4] = Differential scanning fluorimetry (protein thermal shift; TM1 Fc, TM2 Fab); assay type: physicochemical; details: melting temperature of the Fab domain; Table 11
Outline: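 Protein at 0.2-2 mg/mL, mixed 1:1 with diluted SYPRO Orange in PBS, heated 25 to 95 °C at about 1.5 °C/min with fluorescence read per 0.1 °C step, in quadruplicate. TM1 is the Fc (CH2) unfolding transition and TM2 the Fab transition.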

human ROR1-Fz = target: T1, human ROR1-Fz (Homo sapiens, UniProt Q01973); test: Biacore off-rate and kinetic analysis, ROR1 frizzled domain; assay type: binding; details: Table 11 (SP34 light chain)
T1 construct: Frizzled (Fz, residues 165-305); HIS6 (C); purchased Acro Biosystems; host or cells: HEK293

[5] = target: T2, HCT116 cells overexpressing human ROR1 (HCT116-hRor1) (Homo sapiens, UniProt Q01973); test: FACS cell binding, affinity maturation leads; details: Table 11 (SP34 light chain)
T2 construct: expressed in transfected cells; host or cells: HCT116
Text: as §1
Variants with expression levels >250 nM were tested in a fluorescence-activated cell sorting (FACS) cell-binding assay. […]
A mix of ROR1 positive and negative cells was prepared as follows. […] Cells were then washed 2× with FACS buffer and fixed for 10 minutes in 200 μl PBS with 2% PFA prior to fluorescence detection. […] Mean Fluorescence Intensity of ROR1 antibody binding was analyzed using FlowJo® software (Tree Star, Inc.).

[6] = co-culture with PMBCS at E:T=10.1, 3 days

Molecule: O=C(c1cc(Cc2n[nH]c(=O)c3ccccc23)ccc1F)N1CCN(C(=O)C2CC2)CC1 [olaparib]
- tumor growth suppression, single agent (TNBC PDX tumors): moderate tumor growth suppression

Molecule: CC[C@@]1(O)C(=O)OCc2c1cc1n(c2=O)Cc2c-1nc1cc(F)c(C)c3c1c2[C@@H](N)CC3 [exatecan]
- NTERA-2 Span [1]: 98%
- MCF-7 Span (ROR1 negative MCF7 cells): 91%
- markers for immunogenic cell death (calreticulin translocation to the cell surface and HMGB1 release) [2]: induced markers for immunogenic cell death
- cell killing of target cells (live target cell count) [3, 6]: induced potent cell killing of target cells
- monocyte activation (CD86 expression) [3, 6]: potently induced monocyte activation
- calreticulin on the cell surface ([3]; concomitant with reduced viability (FIG. 21C)): calreticulin could be detected on the cell surface

- Biacore human ROR1-Fz ka (human ROR1-Fz): 185000 M⁻¹ s⁻¹
- Biacore human ROR1-Fz kd (human ROR1-Fz): 0.000269 s⁻¹
- HCT 116-hROR1 Binding Bmax [5]: 15139 MFI
B1: SRP2196-B07 (antibody, V domains shown)
VH: EVQLVESGGGLVQPGGSLRLSCAASGFNITGYHIHWVRQAPGEGLEWVGYISPNSGATYYADSVEGRFTISADTSKNTAYLQMHSLRAEDTAVYYCTRDSRRYVRGWDYWGQGTLVTVSS
VL: QAVVTQESALTTSPGETVTLTCRSSTGAVTTSNYANWVQEKPDHLFTGLIGGTNKRAPGVPARFSGSLIGDKAALTITGAQTEDEAIYFCALWYSNLWVFGGGTKLTVL
- TM2 [4]: 69 °C

From patent US12226490B2, “Anti-ROR1 antibody conjugates, compositions comprising anti ROR1 antibody conjugates, and methods of making and using anti-ROR1 antibody conjugates preliminary class” (Sutro Biopharma, Inc., priority 2022, dated 2025)
